Experimental data from article PMC7091493 (Journal of medicinal chemistry, 2019).

Biological target: Mtb20S (Mycobacterium tuberculosis, UniProt P9WHT9)
Type: biochemical

Chain of Mtb20S (P9WHT9 58-291): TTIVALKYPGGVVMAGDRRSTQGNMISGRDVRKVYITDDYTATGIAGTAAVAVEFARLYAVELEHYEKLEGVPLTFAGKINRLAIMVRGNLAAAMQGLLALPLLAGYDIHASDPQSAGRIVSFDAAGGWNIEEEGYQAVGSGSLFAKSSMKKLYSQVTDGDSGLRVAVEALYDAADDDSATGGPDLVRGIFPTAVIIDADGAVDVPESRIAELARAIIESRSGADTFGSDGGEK

Cc1cc(C(=O)N[C@@H](CC(=O)N2CCC[C@@H]2c2ccccc2)C(=O)N[C@@H](C)c2ncc(-c3ccccc3F)[nH]2)no1 [B6]
improved potency against Mtb20S: 10 fold
